Experiments:
Format in all cases: in vivo
TRPV1 = target: T1, TRPV1 (Mus musculus, UniProt Q704Y3); experiment: Topical capsaicin before ischemia/reperfusion in wild-type vs TRPV1 knock-out mice; details: capsaicin topically administered to the abdomen prior to ischemia and reperfusion; FIG. 2E
T1 construct: data from wild-type mice topically treated with capsaicin administered to the abdomen prior to surgical induction of ischemia and reperfusion; from tissue; host or cells: Living wild-type mouse; abdominal skin nociceptors (C-fibers), in vivo
T1 sequence (Q704Y3 whole entry, the tested form may be a part): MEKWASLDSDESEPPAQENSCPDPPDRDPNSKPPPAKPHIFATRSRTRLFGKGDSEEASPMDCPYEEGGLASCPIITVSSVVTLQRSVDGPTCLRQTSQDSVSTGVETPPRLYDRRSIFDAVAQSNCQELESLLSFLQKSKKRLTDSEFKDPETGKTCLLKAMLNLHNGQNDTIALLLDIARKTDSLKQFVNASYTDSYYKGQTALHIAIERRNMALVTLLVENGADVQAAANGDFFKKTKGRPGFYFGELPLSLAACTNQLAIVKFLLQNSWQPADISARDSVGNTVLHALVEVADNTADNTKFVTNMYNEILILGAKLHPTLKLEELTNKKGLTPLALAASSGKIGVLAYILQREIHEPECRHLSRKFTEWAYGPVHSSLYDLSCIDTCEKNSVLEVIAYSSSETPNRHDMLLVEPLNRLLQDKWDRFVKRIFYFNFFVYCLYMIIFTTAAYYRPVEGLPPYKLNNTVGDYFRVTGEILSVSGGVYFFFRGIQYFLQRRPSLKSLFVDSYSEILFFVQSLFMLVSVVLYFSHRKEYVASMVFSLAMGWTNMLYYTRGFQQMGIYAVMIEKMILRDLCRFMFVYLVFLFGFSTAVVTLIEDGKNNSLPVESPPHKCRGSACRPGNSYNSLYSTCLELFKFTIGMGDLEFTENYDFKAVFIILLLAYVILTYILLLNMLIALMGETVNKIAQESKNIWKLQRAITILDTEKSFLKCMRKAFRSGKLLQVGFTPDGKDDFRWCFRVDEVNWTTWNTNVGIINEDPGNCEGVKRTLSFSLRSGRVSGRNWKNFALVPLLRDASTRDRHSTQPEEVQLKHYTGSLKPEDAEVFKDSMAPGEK
Description: FIG. 2, panel E presents a graph of results obtained from wild-type (WT) and TRPV1 knock-out (TRPVKO) mice using topical capsaicin as the cardioprotective stimulus. Infarct size as a percent of risk region is presented on the y-axis. The first bar presents data from wild-type mice topically treated with capsaicin administered to the abdomen prior to surgical induction of ischemia and reperfusion (WT, Capsaicin, hatched bar). The second bar presents data from TRPV1 knockout mice topically treated with capsaicin administered to the abdomen prior to surgical induction of ischemia and reperfusion (TRPVKO, Capsaicin, dotted bar). The third bar presents data from TRPV1 knockout mice subjected to sham treatment prior to surgical induction of ischemia and reperfusion (TRPVKO No capsaicin, empty bar).
Mice were anesthetized with sodium pentobarbital (90 mg/kg ip), intubated with PE 90 tubing and ventilated using a mouse miniventilator (Harvard Apparatus, Holliston, Mass.). All mice were continuously monitored by electrocardiography (ECG) (DigiMed Sinus Rhythm Analyzer, Micro-Med Inc), and mice without evidence of ischemia and timely reperfusion were excluded from the studies. […]

[1] = tested on: murine ischemia/reperfusion model of myocardial infarction; experiment: Mouse ischemia/reperfusion model: infarct size after remote topical TRP agonist
Protocol: A previously described mouse model of ischemia and reperfusion (I/R) injury in vivo was used (Ren et al. (2004) J. Surg Res. 121(1):120-129; Fan et al (2005) Circulation 111(14):1792-1799; Zhou et al (2007) Cardiovascular Research 75(3) 487-497; and Diwan et al (2007) J. Clinical Investigation 117(10):2825-2833, herein incorporated by reference in their entirety). Mice were anesthetized with sodium pentobarbital (90 mg/kg ip), intubated with PE 90 tubing and ventilated using a mouse miniventilator (Harvard Apparatus, Holliston, Mass.). All mice were continuously monitored by electrocardiography ([…] Sinus Rhythm Analyzer, Micro-Med Inc), and mice without evidence of ischemia and timely reperfusion were excluded from the studies. A lateral thoracotomy (1.5 cm incision between the second and third ribs was performed to provide exposure of the left anterior descending coronary artery (LAD). Vascular bundles in the vicinity were coagulated using a microcoagulator (Medical Industries Inc, St. Petersburg Fla.). An 8-0 nylon suture was placed around the LAD 2-3 mm from the tip of the left auricle and a piece of soft silicon tubing (0.64 mm ID, 1.19 mm OD) was placed over the artery. Coronary occlusion was achieved by tightening and tying the suture. Coronary occlusion was for 45 minutes, unless indicated otherwise. At the end of the occlusion, the suture was untied and left in place. Ischemia was confirmed by visual observation of cyanosis and by continuous ECG monitoring (QRS complex widening, T wave inversion and ST segment changes); reperfusion was confirmed by reversal of these effects. Results of one such experiment are presented in FIG. 1, panel A. Mice were euthanized either 4 or 24 hours after reperfusion and infarct size determination and imaging were performed by previously described methods (Ren et al. (2004) J. Surg Res. 121(1):120-129 and Guo et al (1998) Am J. Physiology 275 (4 Pt 2):[…]-1387, herein incorporated by reference in their entirety). Mice were anesthetized with pentobarbital sodium (35 mg/kg iv) and euthanized with an intravenous bolus of KCl. The heart was excised and perfused with Krebs-Henseleit solution through an aortic cannula (22 or 23-gauge needle) using a Langerdorff apparatus. To delineate infarcted from viable myocardium, the heart was then perfused with a 1% solution of 2,3,5-triphenyltetrazolium chloride (TTC) in phosphate buffer (pH 7.4, 37° C.) at a pressure of […] (approx. 3 ml over 3 min). […] Infarct size was determined by the method of Fishbein et al (1981) Am Heart J 101(5):593-600, herein incorporated by reference in its entirety. […] Infarct size was determined as described elsewhere herein. […]

[2] = tested on: murine ischemia/reperfusion model of myocardial infarction; experiment: Blockade of the cardioprotection by remote electrical stimulation in mouse ischemia/reperfusion model
Protocol: A previously described mouse model of ischemia and reperfusion (I/R) injury in vivo was used (Ren et al. (2004) J. Surg Res. 121(1):120-129; Fan et al (2005) Circulation 111(14):1792-1799; Zhou et al (2007) Cardiovascular Research 75(3) 487-497; and Diwan et al (2007) J. Clinical Investigation 117(10):2825-2833, herein incorporated by reference in their entirety). Mice were anesthetized with sodium pentobarbital (90 mg/kg ip), intubated with PE 90 tubing and ventilated using a mouse miniventilator (Harvard Apparatus, Holliston, Mass.). All mice were continuously monitored by electrocardiography (ECG) (DigiMed Sinus Rhythm Analyzer, Micro-Med Inc), and mice without evidence of ischemia and timely reperfusion were excluded from the studies.
A lateral thoracotomy (1.5 cm incision between the second and third ribs was performed to provide exposure of the left anterior descending coronary artery (LAD). Vascular bundles in the vicinity were coagulated using a microcoagulator (Medical Industries Inc, St. Petersburg Fla.). An 8-0 nylon suture was placed around the LAD 2-3 mm from the tip of the left auricle and a piece of soft silicon tubing (0.64 mm ID, 1.19 mm OD) was placed over the artery. Coronary occlusion was achieved by tightening and tying the suture. Coronary occlusion was for 45 minutes, unless indicated otherwise. At the end of the occlusion, the suture was untied and left in place. Ischemia was confirmed by visual observation of cyanosis and by continuous ECG monitoring (QRS complex widening, T wave inversion and ST segment changes); reperfusion was confirmed by reversal of these effects.
Mice were euthanized either 4 or 24 hours after reperfusion and infarct size determination and imaging were performed by previously described methods (Ren et al. (2004) J. Surg Res. 121(1):120-129 and Guo et al (1998) Am J. Physiology 275 (4 Pt 2):H1375-1387, herein incorporated by reference in their entirety). Mice were anesthetized with pentobarbital sodium (35 mg/kg iv) and euthanized with an intravenous bolus of KCl. The heart was excised and perfused with Krebs-Henseleit solution through an aortic cannula (22 or 23-gauge needle) using a Langerdorff apparatus. To delineate infarcted from viable myocardium, the heart was then perfused with a 1% solution of 2,3,5-triphenyltetrazolium chloride (TTC) in phosphate buffer (pH 7.4, 37° C.) at a pressure of […] (approx. 3 ml over 3 min). To delineate the occluded-reperfused coronary vascular bed, the coronary artery was then tied at the site of the previous occlusion and the aortic root was perfused with a 5% solution of phthalo blue dye in normal saline. […] Infarct size was determined by the method of Fishbein et al (1981) Am Heart J 101(5):593-600, herein incorporated by reference in its entirety. […]

Question: How did the “infarct size as a percent of risk region, WT vs TRPVKO” value (TRPV1) turn out when `COc1cc(CNC(=O)CCCC/C=C/C(C)C)ccc1O` [capsaicin, (6E)-N-[(4-Hydroxy-3-methoxyphenyl)methyl]-8-methyl-6-nonenamide] was run?
Answer: Its value is “reduced myocardial infarct size as compared to TRPVKO mice”.

Question: And the “reduction of infarct size (infarct size as a percent of the risk region)” value ([1]; remote pre-conditioning, stimulus given 15 minutes prior to the ischemia, abdominal topical, vs sham, n=6, P<0.01)?
Answer: Its value is 85%.

Question: What about the “infarct size as a percent of the risk region” value ([1]; remote pre-treatment prior to ischemia/reperfusion, vs sham, FIG. 1C) of the same molecule?
Answer: The value was “substantial reduction in infarct size”.

Question: What about the “infarct size as a percent of risk area” value ([1]; topical application during ischemia (conditioning) or after reperfusion (postCON), vs sham, p<0.01, FIG. 10) of the same molecule?
Answer: The value was “significantly reduces infarct size”.

Question: With `CC(C)NCC(O)COc1cccc2ccccc12` (stereo not drawn) [propanolol] as the molecule, how does the “infarct size as a percentage of risk region” value ([2]; propanolol plus ES vs vehicle plus ES, FIG. 3B) read?
Answer: The value was “significantly higher than infarct size in control mice treated only with the vehicle and electrically stimulated”.

Question: Which “infarct size as a percent of risk region” value ([2]; 2% lidocaine prior to electrical stimulation (ES) and ischemia, vs vehicle ES, FIG. 2A) does the source give for `CCN(CC)CC(=O)Nc1c(C)cccc1C` [lidocaine] here?
Answer: Its value is “significantly higher percentage of risk region than infarction size in vehicle and ES treated mice”.

Question: What about the “cardioprotective effect of the remote electrical stimulation” value ([2]; 10 μl lidocaine (2%) s.c. pre-treatment, 45 min occlusion) of the same molecule?
Answer: The value was “no significant cardioprotection relative to controls”.

Question: How did the “inhibition of ischemia-related tissue damage (infarct size as a percentage of risk region)” value ([2]; chelerythrine plus ES vs vehicle plus ES, FIG. 3C) turn out when `COc1ccc2c(c[n+](C)c3c4cc5c(cc4ccc23)OCO5)c1OC` [chelerythrine] was run?
Answer: The value was “reduced inhibition of ischemia-related tissue damage”.

Question: For `CCCN(CCC)S(=O)(=O)c1ccc(C(=O)O)cc1` [probenecid], which “infarct size as a percent of risk region” value ([1]; topical probenecid application vs sham/control animals, p<0.07, FIG. 11) is on record?
Answer: The value was “significantly reduced”.

— US9216171B2, “Methods of preventing ischemic injury using peripheral nociceptive stimulation” (University of Cincinnati, priority 2009, dated 2015)
